biological target: T1, G1 APOL1 (Homo sapiens, UniProt O14791, I384M/S342G); assay: Acute APOL1 Thallium Assay with inducible stable clones of HEK 293 cells; type: cell-based; conditions: HEK 293 T-Rex cells expressing G1 APOL1; read-out: Thallium Assay (IC50)
T1 construct: expressed in transfected cells
T1 sequence (O14791 28-398 S342G/I384M): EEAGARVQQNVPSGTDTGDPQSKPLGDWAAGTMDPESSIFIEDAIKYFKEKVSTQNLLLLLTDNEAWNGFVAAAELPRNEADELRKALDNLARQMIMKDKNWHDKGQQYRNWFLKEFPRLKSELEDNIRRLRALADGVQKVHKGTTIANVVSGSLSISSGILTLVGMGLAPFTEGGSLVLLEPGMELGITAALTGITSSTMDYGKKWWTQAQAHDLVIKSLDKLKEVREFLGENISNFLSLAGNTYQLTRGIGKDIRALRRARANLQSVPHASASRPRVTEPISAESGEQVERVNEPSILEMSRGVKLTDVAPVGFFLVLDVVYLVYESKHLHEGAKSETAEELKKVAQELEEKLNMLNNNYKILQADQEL
Procedure, shortened: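 Tetracycline-inducible HEK293 T-Rex clone G1 DC3.25 expressing G1 APOL1, plated at 26000 cells/well in Opti-MEM with tetracycline induction. APOL1 pore activity read on FLIPR as fluorescence increase from Tl+ influx into cells loaded with a Tl+-sensitive AM-ester dye.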

Compared with `CN(C(=O)[C@H]1C[C@H](c2c(-c3ccc(F)cc3)[nH]c3c(F)cc(F)cc32)C1)C1(CO)CC1` [Compound 58], `CN(CCO)C(=O)[C@H]1C[C@H](c2c(-c3ccc(F)cc3)[nH]c3c(F)cc(F)cc32)C1` [Compound 79] is lower in IC50: 0.25 to 1 µM for the first, < 0.25 µM for the second.

First: O=C(NC1(CCO)CC1)[C@H]1C[C@H](c2c(-c3ccc(F)cc3)[nH]c3c(F)cc(F)cc32)C1 [Compound 59]
Second: O=C(NCC1(CO)COC1)[C@H]1C[C@H](c2c(-c3ccc(F)cc3)[nH]c3c(F)cc(F)cc32)C1 [Compound 83]
The IC50 of the first is lower: 0.25 to 1 µM for the first, > 1 µM for the second. The first is the more potent here.

Going from `CC(N)(C(=O)NC(=O)[C@H]1C[C@H](c2c(-c3ccc(F)cc3)[nH]c3c(F)cc(F)cc32)C1)C(F)(F)F` (stereo partly shown) [Compound 60] to `O=C(NC(CO)CF)[C@H]1C[C@H](c2c(-c3ccc(F)cc3)[nH]c3c(F)cc(F)cc32)C1` (stereo partly shown) [Compound 78], the IC50 falls from > 1 µM to < 0.25 µM.

Compared with `C[C@@H](NC(=O)[C@H]1C[C@H](c2c(-c3ccc(F)cc3)[nH]c3c(F)cc(F)cc32)C1)C(=O)N(C)C` [Compound 61], `C[C@H](NC(=O)[C@H]1C[C@H](c2c(-c3ccc(F)cc3)[nH]c3c(F)cc(F)cc32)C1)C(=O)N(C)C` [Compound 65] is lower in IC50: > 1 µM for the first, 0.25 to 1 µM for the second. The second is the more potent here.

First: CN(C)C(=O)CN(C)C(=O)[C@H]1C[C@H](c2c(-c3ccc(F)cc3)[nH]c3c(F)cc(F)cc32)C1 [Compound 62]
Second: CC(O)CN(C)C(=O)[C@H]1C[C@H](c2c(-c3ccc(F)cc3)[nH]c3c(F)cc(F)cc32)C1 (stereo partly shown) [Compound 90]
The IC50 of the first is lower: 0.25 to 1 µM for the first, > 1 µM for the second. The first is the more potent here.

First: CC(C)N1CCN(C(=O)[C@H]2C[C@H](c3c(-c4ccc(F)cc4)[nH]c4c(F)cc(F)cc43)C2)CC1=O [Compound 63]
Second: CC1(O)CN(C(=O)[C@H]2C[C@H](c3c(-c4ccc(F)cc4)[nH]c4c(F)cc(F)cc43)C2)C1 [Compound 74]
The IC50 of the first is higher: > 1 µM for the first, 0.25 to 1 µM for the second.

`CCNC(=O)[C@@H]1CCCN1C(=O)[C@H]1C[C@H](c2c(-c3ccc(F)cc3)[nH]c3c(F)cc(F)cc32)C1` [Compound 64] and `NC(=O)[C@@H]1CCCN1C(=O)[C@H]1C[C@H](c2c(-c3ccc(F)cc3)[nH]c3c(F)cc(F)cc32)C1` [Compound 88] cannot be ordered by IC50: > 1 µM for the first, > 1 µM for the second.

`CC(C)(NC(=O)[C@H]1C[C@H](c2c(-c3ccc(F)cc3)[nH]c3c(F)cc(F)cc32)C1)C(=O)N1CCOCC1` [Compound 66] and `CN1CCN(C(=O)CNC(=O)[C@H]2C[C@H](c3c(-c4ccc(F)cc4)[nH]c4c(F)cc(F)cc43)C2)CC1` [Compound 67] cannot be ordered by IC50: > 1 µM for the first, > 1 µM for the second.

`O=C(NCC1(O)CCCC1)[C@H]1C[C@H](c2c(-c3ccc(F)cc3)[nH]c3c(F)cc(F)cc32)C1` [Compound 69] and `O=C(NCC1(O)CCCCC1)[C@H]1C[C@H](c2c(-c3ccc(F)cc3)[nH]c3c(F)cc(F)cc32)C1` [Compound 80] cannot be ordered by IC50: > 1 µM for the first, > 1 µM for the second.

First: CN1CC(CNC(=O)[C@H]2C[C@H](c3c(-c4ccc(F)cc4)[nH]c4c(F)cc(F)cc43)C2)CC1=O (stereo partly shown) [Compound 70]
Second: C[C@H](O)CNC(=O)[C@H]1C[C@H](c2c(-c3ccc(F)cc3)[nH]c3c(F)cc(F)cc32)C1 [Compound 82]
The IC50 of the first is higher: > 1 µM for the first, 0.25 to 1 µM for the second.

First: Cn1ccc(CNC(=O)[C@H]2C[C@H](c3c(-c4ccc(F)cc4)[nH]c4c(F)cc(F)cc43)C2)n1 [Compound 71]
Second: Cc1cc(CNC(=O)[C@H]2C[C@H](c3c(-c4ccc(F)cc4)[nH]c4c(F)cc(F)cc43)C2)nn1C [Compound 73]
The IC50 of the first is lower: 0.25 to 1 µM for the first, > 1 µM for the second. The first is the more potent here.

`COCc1cc(CNC(=O)[C@H]2C[C@H](c3c(-c4ccc(F)cc4)[nH]c4c(F)cc(F)cc43)C2)n[nH]1` [Compound 72] and `CN(CC(C)(C)O)C(=O)[C@H]1C[C@H](c2c(-c3ccc(F)cc3)[nH]c3c(F)cc(F)cc32)C1` [Compound 93] cannot be ordered by IC50: > 1 µM for the first, > 1 µM for the second.

Compared with `O=C(OC1CN(C(=O)[C@H]2C[C@H](c3c(-c4ccc(F)cc4)[nH]c4c(F)cc(F)cc43)C2)C1)C1CCOCC1` [Compound 85], `CC(C)(O)C1CN(C(=O)[C@H]2C[C@H](c3c(-c4ccc(F)cc4)[nH]c4c(F)cc(F)cc43)C2)C1` [Compound 86] is higher in IC50: 0.25 to 1 µM for the first, > 1 µM for the second. The first is the more potent here.

`O=C([C@H]1C[C@H](c2c(-c3ccc(F)cc3)[nH]c3c(F)cc(F)cc32)C1)N1CCC(O)(CO)CC1` [Compound 87] and `O=C([C@H]1C[C@H](c2c(-c3ccc(F)cc3)[nH]c3c(F)cc(F)cc32)C1)N1CCCCC1CCO` (stereo partly shown) [Compound 94] cannot be ordered by IC50: > 1 µM for the first, > 1 µM for the second.

`CC(=O)NC1CCCN(C(=O)[C@H]2C[C@H](c3c(-c4ccc(F)cc4)[nH]c4c(F)cc(F)cc43)C2)C1` (stereo partly shown) [Compound 91] and `NC(=O)C1CCCCN1C(=O)[C@H]1C[C@H](c2c(-c3ccc(F)cc3)[nH]c3c(F)cc(F)cc32)C1` (stereo partly shown) [Compound 92] cannot be ordered by IC50: > 1 µM for the first, > 1 µM for the second.

same assay, conditions: Table 24, Compounds 287 to 465; read-out: Thallium Assay (IC50)

`NC(=O)CNCC1CC(c2c(-c3ccc(F)cc3)[nH]c3c(F)cc(F)cc23)C1` (stereo not shown) [Compound 433, 2-(((3-(5,7-difluoro-2-(4-fluorophenyl)-1H-indol-3-yl)cyclobutyl)methyl)amino)acetamide] and `NC(=O)CNC[C@H]1C[C@@H](c2c(-c3ccc(F)cc3)[nH]c3c(F)cc(F)cc32)C1` [Compound 447] cannot be ordered by IC50: < 0.25 µM for the first, < 0.25 µM for the second.

With `NC(=O)CC1CC(c2c(-c3ccc(F)cc3)[nH]c3c(F)cc(F)cc23)C1` (stereo not shown) [Compound 455] the IC50 was < 0.25 µM.

same assay, conditions: Thallium Assay (IC50), HEK 293 T-Rex cells expressing G1 APOL1

`O=C([C@H]1C[C@H](c2c(-c3ccc(F)cc3)[nH]c3c(F)cc(F)cc32)C1)N1CCC(O)(O)CC1` [Compound 127] was tested, and the IC50 was > 1 µM.
